Results published in ChEMBL document CHEMBL3351699, “Diarylthiazole: an antimycobacterial scaffold potentially targeting PrrB-PrrA two-component system” (J Med Chem, 2014).
≈ marks a conversion by molar mass, not a printed value. Calls of active or inactive are those of the source. No cut-off for these calls is given here.

Legend:
Format in all cases: functional
[1] = system: Mycobacterium tuberculosis; experiment: Antimicrobial activity against clinical isolate Isoniazid-resistant Mycobacterium tuberculosis assessed as growth inhibition after 7 days by turbidometry; settings: 168 h
[2] = system: Mycobacterium tuberculosis; experiment: Antimicrobial activity against clinical isolate Rifampin-resistant Mycobacterium tuberculosis assessed as growth inhibition after 7 days by turbidometry; settings: 168 h
[3] = system: Mycobacterium tuberculosis; experiment: Antimicrobial activity against second mutant generation Mycobacterium tuberculosis 1024_16.6 assessed as fold shift in MIC relative to parent strain
[4] = system: Mycobacterium tuberculosis; experiment: Antimicrobial activity against second mutant generation Mycobacterium tuberculosis 1024_18 assessed as fold shift in MIC relative to parent strain
[5] = system: Mycobacterium tuberculosis; experiment: Antimicrobial activity against second mutant generation Mycobacterium tuberculosis 1024_16.5 assessed as fold shift in MIC relative to parent strain
[6] = system: Mycobacterium tuberculosis; experiment: Antimicrobial activity against second mutant generation Mycobacterium tuberculosis 1024_8.12 assessed as fold shift in MIC relative to parent strain
[7] = system: Mycobacterium tuberculosis; experiment: Antimicrobial activity against first mutant generation Mycobacterium tuberculosis 1024_18 assessed as fold shift in MIC relative to parent strain
[8] = system: Mycobacterium tuberculosis; experiment: Antimicrobial activity against first mutant generation Mycobacterium tuberculosis 1024_1 assessed as fold shift in MIC relative to parent strain
[9] = system: Mycobacterium tuberculosis; experiment: Antimicrobial activity against Mycobacterium tuberculosis H37Rv over-expressing InhA cells assessed as upshift of MIC relative to wild type

| Compound | MIC80 [1] | MIC80 [2] | Ratio [3] | Ratio [4] | Ratio [5] | Ratio [6] | Ratio [7] | Ratio [8] | Activity [9] | fold change (FC) [9] |
| --- | --- | --- | --- | --- | --- | --- | --- | --- | --- | --- |
| CCCc1cc(-c2nc(-c3cccc(OC)c3)cs2)ccn1 | 1 µg/mL (≈ 3.22 µM) | 0.5 µg/mL (≈ 1.61 µM) | – | – | – | – | – | – | – | – |
| CCCc1cc(-c2nc(-c3ccc(NS(C)(=O)=O)cc3)cs2)ccn1 | 0.5 µg/mL (≈ 1.34 µM) | 0.13 µg/mL (≈ 0.348 µM) | – | – | – | – | – | – | – | – |
| CCCc1cc(-c2nc(-c3ccc(OCC4CC4)cc3)cs2)ccn1 | 1 µg/mL (≈ 2.85 µM) | 0.13 µg/mL (≈ 0.371 µM) | – | – | – | – | – | – | – | – |
| CCCc1cc(-c2nc(-c3ccc(OCCN4CCOCC4)cc3)cs2)ccn1 | 1 µg/mL (≈ 2.44 µM) | 0.5 µg/mL (≈ 1.22 µM) | >8 | 8 | 4 | 8 | – | – | – | – |
| CCCc1cc(-c2nc(-c3ccncc3)cs2)ccn1 | – | – | 16 | 8 | 16 | 8 | 8 | 16 | Active | – |
| CCCc1cc(-c2nc(-c3ccccn3)cs2)ccn1 | – | – | – | – | – | – | – | – | Active | – |
| CCCc1cc(-c2csc(-c3ccnc(CCC)c3)n2)ccn1 | – | – | – | – | – | – | – | – | Active | – |
| CCCc1cc(-c2nc(-c3ccnc(OCC)c3)cs2)ccn1 | – | – | – | – | – | – | – | – | Active | – |
| COc1nc2ccc(Br)cc2cc1[C@@H](c1ccccc1)[C@@](O)(CCN(C)C)c1cccc2ccccc12 [BEDAQUILINE] | – | – | 0.5 | 0.25 | 0.5 | 0.25 | 0.5 | 1 | – | – |
| CCc1cc(C(N)=S)ccn1 [ETHIONAMIDE] | – | – | – | – | – | – | – | – | – | 8 |
| CCCc1cc(-c2nc(-c3ccc(C)cc3)cs2)ccn1 [FATOSTATIN] | – | – | >32 | 16 | 16 | 16 | 16 | 8 | Active | – |
| NNC(=O)c1ccncc1 [ISONIAZID] | > 16 µg/mL | 0.03 µg/mL (≈ 0.219 µM) | 1 | 1 | 1 | 1 | 1 | 1 | – | 8 |
| CC(=O)NC[C@H]1CN(c2ccc(N3CCOCC3)c(F)c2)C(=O)O1 [LINEZOLID] | – | – | – | – | – | – | 1 | 1 | – | – |
| COc1c(N2C[C@@H]3CCCN[C@@H]3C2)c(F)cc2c(=O)c(C(=O)O)cn(C3CC3)c12 [MOXIFLOXACIN] | – | – | 1 | 0.5 | 1 | 1 | 1 | 1 | – | – |
| CO[C@H]1/C=C/O[C@@]2(C)Oc3c(C)c(O)c4c(O)c(c(/C=N/N5CCN(C)CC5)c(O)c4c3C2=O)NC(=O)/C(C)=C\C=C\[C@H](C)[C@H](O)[C@@H](C)[C@@H](O)[C@@H](C)[C@H](OC(C)=O)[C@@H]1C [RIFAMPIN] | 0.003 µg/mL (≈ 0.00365 µM) | > 16 µg/mL | – | – | – | – | 0.5 | 0.5 | – | – |
| Oc1cc(Cl)ccc1Oc1ccc(Cl)cc1Cl [TRICLOSAN] | – | – | – | – | – | – | – | – | – | 8 |
